For series [1], the target named is T1, human MC4 receptor (Homo sapiens, UniProt P32245).
T1 construct: host or cells: CHO-K1
In words: Affinity assay: displacement of [125I]-[Nle4,D-Phe7]-α-MSH binding to membranes of CHO-K1 cells expressing hMC4 (SPA). The conditions noted are these: displacement of specific radioligand binding by 50%; radioligand 100 pM; read-out: IC50 with respect to the MC4 receptor. As for the experimental part: This affinity assay is carried out by measuring the binding of [^125I]-[Nle^4-D-Phe^7]-[…]-MSH to cell membranes. The displacement of this radioligand is used to identify inhibitors of the specific binding to recombinant melanocortin receptors.
For this assay, membranes prepared from CHO-K1 cells expressing the human MC4 receptor at high density (Euroscreen) or membranes, that were purchased (Perkin Elmer Life Sciences, Receptor Biology), of HEK-293 cells expressing hMC3 receptors were used. CHO-K1 cells transfected with the hMC4 receptor gene (Euroscreen) are seeded into DMEM/Nutrient Mix F12 culture medium containing 10% foetal calf serum (Biowhittaker), 1% sodium pyruvate, 1% L-glutamine, 1% non-essential amino acids, 0.4 mg/ml geneticin (G418) and 0.5% PenStrep, these products being provided by Gibco/BR1, except the calf serum. At 80% confluency, the cells are scraped off and the cell pellets are frozen at −80° C.
A tube of cells (approximately 70×10^6 cells) is thawed on ice and resuspended in 10 ml of binding buffer [25 mM HEPES, pH 7.0, 1 mM MgCl2, 1.5 mM CaCl2, 100 mM NaCl, 1 mM 1,10-phenanthroline and 1 tablet of Complete^TR (protease inhibitor from Roche) in 50 ml of buffer] using a polytron for 20 seconds. […] The nonspecific binding is defined by NDP-[…]MSH at 10^−7 M. The total binding is measured by the number of counts per minute in the presence of the radioligand alone. […]

Another series concerns the target T2, human MC3 receptor (Homo sapiens, UniProt P41968).
T2 construct: expressed in transfected cells; host or cells: CHO(dhfr-)
As to the kind of experiment: Functional agonist assay: cAMP formation in CHO(dhfr-) cells expressing the human MC3 receptor. It counts as cell-based. The conditions noted are these: 1 hour incubation, 50% of the maximum stimulation obtained with the compound, read-out: EC50 with respect to the MC3 receptor. The procedure: (§1) A functional assay is used to differentiate between the agonist activity and the antagonist activity. For this, the formation of cyclic adenosine monophosphate (cAMP) generated by activation of the MC3 receptor or of the MC4 receptor is assayed.
CHO(dhfr-) cells expressing the human MC3 receptor are seeded into MEM Eagle culture medium (Sigma) containing 10% of dialysed calf serum, 1% L-glutamine, 1% sodium pyruvate, 20 mg/500 ml L-proline, 0.3 mg/ml Geneticin and 0.5% PenStrep, these products being provided by Gibco/BRI, except for the dialysed calf serum (Cambrex) and the L-proline (Sigma).
(§2) The compounds to be tested (diluted in 10% DMSO), in an amount of 10 μl at a concentration of 10 times the final concentration, are added to the plates of cells (final volume=100 μl/well). After incubation for 1 hour (37° C., 5% CO2), the amount of cAMP is assayed using Tropix kits (Appelera) according to the supplier's documentation. The intrinsic activity of the compounds is calculated by comparing the stimulation of cAMP by these compounds to the stimulation induced by 30 nM of NDP[…]MSH (maximum of 100%). The EC50 value for the compounds corresponds to the concentration which produces 50% of the maximum stimulation obtained with this compound.

Series [2] has as its target T1, human MC4 receptor. As to the kind of experiment: Functional agonist assay: cAMP formation in CHO-K1 cells expressing the human MC4 receptor. It counts as cell-based. To be noted: 1 hour incubation, 50% of the maximum stimulation obtained with the compound, read-out: EC50 with respect to the MC4 receptor. As for the experimental part:
as §1
CHO-K1 cells, expressing the human MC4 receptor at a moderate density (Euroscreen), are seeded into DMEM/Nutrient Mix F12 culture medium (Gibco/BR1) containing 10% of foetal calf serum, 0.5% sodium pyruvate, 1% L-glutamine, 1% non-essential amino acids, 200 mg/l hygromycin B and 0.5% PenStrep, these products being provided by Gibco/BR1, except the calf serum (Biowhittaker) and hygromycin B (Sigma).
as §2
On the technique in general: cAMP levels reflect the balance of adenylyl cyclase and phosphodiesterase activity.

Structures can show the parent of a compound that is named as a salt.

A word on the melting point: it is the temperature of the solid-liquid transition. As a reminder, the IC50 is the concentration needed to halve the response being measured. The term EC50 denotes the concentration that produces a half-maximal response.

T1 sequence (P32245 whole entry): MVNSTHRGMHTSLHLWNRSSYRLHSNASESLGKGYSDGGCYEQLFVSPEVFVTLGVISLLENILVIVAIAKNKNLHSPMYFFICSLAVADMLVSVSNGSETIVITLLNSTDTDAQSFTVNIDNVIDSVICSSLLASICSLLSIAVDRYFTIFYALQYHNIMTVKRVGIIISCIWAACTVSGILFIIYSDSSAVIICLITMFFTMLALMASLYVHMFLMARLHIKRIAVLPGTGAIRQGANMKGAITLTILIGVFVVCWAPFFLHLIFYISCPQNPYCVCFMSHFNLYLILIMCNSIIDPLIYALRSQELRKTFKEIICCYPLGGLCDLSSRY
T2 sequence (P41968 whole entry): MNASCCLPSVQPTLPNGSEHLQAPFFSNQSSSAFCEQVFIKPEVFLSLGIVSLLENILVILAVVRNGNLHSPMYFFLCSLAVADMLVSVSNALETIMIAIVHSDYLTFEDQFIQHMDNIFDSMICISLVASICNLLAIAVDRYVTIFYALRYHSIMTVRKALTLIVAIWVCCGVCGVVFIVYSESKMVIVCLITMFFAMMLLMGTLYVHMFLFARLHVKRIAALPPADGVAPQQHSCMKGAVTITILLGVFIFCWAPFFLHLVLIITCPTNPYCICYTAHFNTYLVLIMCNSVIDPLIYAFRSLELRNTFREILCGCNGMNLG

For `CCN(CC)C(=O)N(C1CCCCC1)C1CC2CCC(C1)N2C(=O)[C@@H](Cc1ccc(Cl)cc1)NC1CCNC1` (stereo partly shown) (as salt: HCl), the melting point is 220 °C.
The same measure, in the same setting: then `CCN(CC)C(=O)N(C1CCCCC1)C1CC2CCC(C1)N2C(=O)[C@@H](Cc1ccc(Cl)cc1)NCCN` (stereo partly shown) (as salt: HCl), with 105 °C; and `CCN(CC)C(=O)N(C1CCCCC1)C1CC2CCC(C1)N2C(=O)[C@@H](Cc1ccc(Cl)cc1)NCCCN` (stereo partly shown) (as salt: HCl), with 215 °C; and `CCN(CC)C(=O)N(C1CCCCC1)C1CC2CCC(C1)N2C(=O)[C@@H](Cc1ccc(Cl)cc1)NC(C)/C=N/O` (stereo partly shown) (as salt: HCl), with 132 °C.
On the same count and under the same terms, to `CCN(CC)C(=O)N(C1CCCCC1)C1CC2CCC(C1)N2C(=O)[C@@H](Cc1ccc(Cl)cc1)NC1CNC1` (stereo partly shown) (as salt: HCl) belongs 170 °C.
The same measure, in the same setting: to `CCN(CC)C(=O)N(C1CCCCC1)C1CC2CCC(C1)N2C(=O)[C@@H](Cc1ccc(Cl)cc1)NC1CCSC1` (stereo partly shown) (as salt: HCl) belongs more than 200 °C.
Regarding `CCN(CC)C(=O)N(C1CCCCC1)C1CC2CCC(C1)N2C(=O)[C@@H](Cc1ccc(Cl)cc1)NC1CCC(N)CC1` (stereo partly drawn) (as salt: HCl) [compound 3, N-{8-[N-(4-aminocyclohexyl)-4-chloro-D-phenylalanyl]-8-azabicyclo[3.2.1]oct-3-yl}-N-cyclohexyl-N′,N′-diethylurea], the melting point stood at 208 °C.
Take `CCN(CC)C(=O)N(C1CCCCC1)C1CC2CCC(C1)N2C(=O)[C@@H](Cc1ccc(Cl)cc1)NC1CCC(N)CC1` (stereo partly drawn) [compound 3, N-{8-[N-(4-aminocyclohexyl)-4-chloro-D-phenylalanyl]-8-azabicyclo[3.2.1]oct-3-yl}-N-cyclohexyl-N′,N′-diethylurea]: at human MC4 receptor [1], the IC50 stood at 280 nM. Moreover, the results for the EC50 on human MC3 receptor and on human MC4 receptor [2] were 330 nM and 28 nM, respectively.

(Values after US7569582B2, “Aminotropane derivatives, preparation thereof and therapeutic use thereof” (Sanofi-Aventis, priority 2004, dated 2009).)
